Experimental data published in patent US12565522B2, “Micropeptide HMMW and application thereof” (NANJING ANJI BIOTECHNOLOGY CO., LTD., priority 2019, dated 2026).
No end group written: not given here.

How the values were obtained:
Type in all cases: cell-based, human
Settings in all cases: 24 h
[1] = system: A431 cells of skin cancer; assay: transwell migration test
Protocol: (§1) Inoculate SCC4 cells of head and neck cancer, SW579 cells of thyroid cancer, A549 cells of lung cancer, TE13 cells of esophageal squamous cell carcinoma, MGC803 cells of stomach cancer, MDA-MB-231 cells of breast cancer, UOK262 cells of kidney cancer, and A431 cells of skin cancer of human to transwell cells, 100 μL per well, and meanwhile add micropeptides HMMW I to IX at different doses to every cell. Add 0.6 mL of complete medium containing 10% FBS to the transwell cells to stimulate cell migration, and culture in 5% CO2 at 37 DEG C. for 24 h. Discard the medium in the wells, fix with 90% alcohol at room temperature for 30 min, stain with 0.1% crystal violet at room temperature for 10 min, rinse with clear water, gently wipe off the non-migrated cells in the upper layer with a cotton swab, observe under a microscope and select four fields of view to take pictures and count. Calculate the migration inhibition rate (MIR) of the cells according to the following formula: […]
(§2) The test was repeated independently three times. Mean±SD was calculated based on the test results. Statistical t test was done. Here, “the test was repeated independently three times” means that every dose of any type of cells was tested repeatedly three times, and then the above formula was used to calculate the number of migrated cells (Mean±SD). Value P was used to express statistical difference. The statistical significance of the results is a method for estimating how true the results are (the totality can be represented), *P<0.05 means significant difference, and **P<0.01 means very significant difference.

[2] = system: A549 cells of lung cancer; assay: transwell migration test
Protocol: as §1, §2

[3] = system: MDA-MB-231 cells of breast cancer; assay: transwell migration test
Protocol: as §1, §2

[4] = system: MGC803 cells of stomach cancer; assay: transwell migration test
Protocol: as §1, §2

[5] = system: SCC4 cells of head and neck cancer; assay: transwell migration test
Protocol: as §1, §2

[6] = system: SW579 cells of thyroid cancer; assay: transwell migration test
Protocol: as §1, §2

[7] = system: TE13 cells of esophageal squamous cell carcinoma; assay: transwell migration test
Protocol: as §1, §2

[8] = system: UOK262 cells of kidney cancer; assay: transwell migration test
Protocol: as §1, §2

[9] = system: A431 cells of skin cancer; assay: Matrigel transwell invasion test
Protocol: (§3) Dilute 10 mg/mL Matrigel with culture medium at 1:3, spread it on membranes of transwell cells and dry it in the air at room temperature. Use trypsin to digest and collect SCC4 cells of head and neck cancer, SW579 cells of thyroid cancer, A549 cells of lung cancer, TE13 cells of esophageal squamous cell carcinoma, MGC803 cells of stomach cancer, MDA-MB-231 cells of breast cancer, UOK262 cells of kidney cancer, and A431 cells of skin cancer of human, which were cultured to the logarithmic phase, wash with PBS twice and re-suspend with a blank culture medium. Adjust cell concentration to 1×10^5 cells/mL. Inoculate the cells to transwell cells, 100 μL per well, and meanwhile add micropeptides HMMW I to IX at different doses to every cell. Add 0.6 mL of complete medium containing 10% FBS to the transwell cells to stimulate cell invasion, and culture in 5% CO2 at 37 DEG C. for 24 h. Discard the medium in the wells, fix with 90% alcohol at room temperature for 30 min, stain with 0.1% crystal violet at room temperature for 10 min, rinse with clear water, gently wipe off the non-invaded cells in the upper layer with a cotton swab, observe under a microscope and select four fields of view to take pictures and count. Calculate the invasion inhibition rate (IIR) of the cells according to the following formula:
(§4) [formula] where Ntest is the number of invaded cells in the test groups (the groups at a dose of 1, 4 or 16 μM in the table), Ncontrol is the number of invaded cells in the blank control groups (the groups at a dose of 0 μM in the table). The test was repeated independently three times. Mean±SD was calculated based on the test results. Statistical t test was done. Value P was used to express statistical difference. The statistical significance of the results is a method for estimating how true the results are (the totality can be represented), *P<0.05 means significant difference, and **P<0.01 means very significant difference.

[10] = system: A549 cells of lung cancer; assay: Matrigel transwell invasion test
Protocol: as §3, §4

[11] = system: MDA-MB-231 cells of breast cancer; assay: Matrigel transwell invasion test
Protocol: as §3, §4

[12] = system: MGC803 cells of stomach cancer; assay: Matrigel transwell invasion test
Protocol: as §3, §4

[13] = system: SCC4 cells of head and neck cancer; assay: Matrigel transwell invasion test
Protocol: as §3, §4

[14] = system: SW579 cells of thyroid cancer; assay: Matrigel transwell invasion test
Protocol: as §3, §4

[15] = system: TE13 cells of esophageal squamous cell carcinoma; assay: Matrigel transwell invasion test
Protocol: as §3, §4

[16] = system: UOK262 cells of kidney cancer; assay: Matrigel transwell invasion test
Protocol: as §3, §4

MERAGVPGFSPRRSSVEAKMQSTSCSVRKSSTVTAWPAVVLLLSWGQRRGE-OH [HMMW-VIII]
migration inhibition rate ([1]; dose 1 μM): 33.10% | migration inhibition rate ([1]; dose 4 μM): 53.37% | migration inhibition rate ([1]; dose 16 μM): 71.20% | migration inhibition rate ([2]; dose 1 μM): 32.06% | migration inhibition rate ([2]; dose 4 μM): 51.90% | migration inhibition rate ([2]; dose 16 μM): 73.40% | migration inhibition rate ([3]; dose 1 μM): 26.14% | migration inhibition rate ([3]; dose 4 μM): 50.24% | migration inhibition rate ([3]; dose 16 μM): 73.32% | migration inhibition rate ([4]; dose 1 μM): 24.60% | migration inhibition rate ([4]; dose 4 μM): 53.43% | migration inhibition rate ([4]; dose 16 μM): 73.81% | migration inhibition rate ([5]; dose 1 μM): 17.80% | migration inhibition rate ([5]; dose 4 μM): 42.92% | migration inhibition rate ([5]; dose 16 μM): 72.35% | migration inhibition rate ([6]; dose 1 μM): 18.81% | migration inhibition rate ([6]; dose 4 μM): 52.05% | migration inhibition rate ([6]; dose 16 μM): 70.90% | migration inhibition rate ([7]; dose 1 μM): 23.73% | migration inhibition rate ([7]; dose 4 μM): 42.23% | migration inhibition rate ([7]; dose 16 μM): 63.31% | migration inhibition rate ([8]; dose 1 μM): 18.29% | migration inhibition rate ([8]; dose 4 μM): 43.48% | migration inhibition rate ([8]; dose 16 μM): 71.45% | invasion inhibition rate ([9]; dose 1 μM): 34.50% | invasion inhibition rate ([9]; dose 4 μM): 55.11% | invasion inhibition rate ([9]; dose 16 μM): 69.43% | invasion inhibition rate ([10]; dose 1 μM): 34.03% | invasion inhibition rate ([10]; dose 4 μM): 55.20% | invasion inhibition rate ([10]; dose 16 μM): 68.03% | invasion inhibition rate ([11]; dose 1 μM): 27.90% | invasion inhibition rate ([11]; dose 4 μM): 45.81% | invasion inhibition rate ([11]; dose 16 μM): 64.26% | invasion inhibition rate ([12]; dose 1 μM): 26.01% | invasion inhibition rate ([12]; dose 4 μM): 57.18% | invasion inhibition rate ([12]; dose 16 μM): 70.60% | invasion inhibition rate ([13]; dose 1 μM): 23.71% | invasion inhibition rate ([13]; dose 4 μM): 49.14% | invasion inhibition rate ([13]; dose 16 μM): 76.64% | invasion inhibition rate ([14]; dose 1 μM): 19.61% | invasion inhibition rate ([14]; dose 4 μM): 43.56% | invasion inhibition rate ([14]; dose 16 μM): 64.79% | invasion inhibition rate ([15]; dose 1 μM): 24.21% | invasion inhibition rate ([15]; dose 4 μM): 42.31% | invasion inhibition rate ([15]; dose 16 μM): 61.51% | invasion inhibition rate ([16]; dose 1 μM): 35.27% | invasion inhibition rate ([16]; dose 4 μM): 54.14% | invasion inhibition rate ([16]; dose 16 μM): 68.21%

MERAGVPGFSPRRSSVEAKMQSTSCSVRKSSTVTAWPAVVLLLSWGQRDEE-OH [HMMW-VI]
migration inhibition rate ([1]; dose 1 μM): 33.19% | migration inhibition rate ([1]; dose 4 μM): 55.17% | migration inhibition rate ([1]; dose 16 μM): 70.23% | migration inhibition rate ([2]; dose 1 μM): 32.00% | migration inhibition rate ([2]; dose 4 μM): 51.90% | migration inhibition rate ([2]; dose 16 μM): 70.46% | migration inhibition rate ([3]; dose 1 μM): 27.06% | migration inhibition rate ([3]; dose 4 μM): 50.34% | migration inhibition rate ([3]; dose 16 μM): 74.38% | migration inhibition rate ([4]; dose 1 μM): 26.64% | migration inhibition rate ([4]; dose 4 μM): 51.45% | migration inhibition rate ([4]; dose 16 μM): 72.80% | migration inhibition rate ([5]; dose 1 μM): 16.69% | migration inhibition rate ([5]; dose 4 μM): 42.81% | migration inhibition rate ([5]; dose 16 μM): 71.04% | migration inhibition rate ([6]; dose 1 μM): 19.81% | migration inhibition rate ([6]; dose 4 μM): 52.03% | migration inhibition rate ([6]; dose 16 μM): 70.91% | migration inhibition rate ([7]; dose 1 μM): 21.76% | migration inhibition rate ([7]; dose 4 μM): 40.21% | migration inhibition rate ([7]; dose 16 μM): 66.32% | migration inhibition rate ([8]; dose 1 μM): 17.32% | migration inhibition rate ([8]; dose 4 μM): 40.38% | migration inhibition rate ([8]; dose 16 μM): 72.47% | invasion inhibition rate ([9]; dose 1 μM): 36.83% | invasion inhibition rate ([9]; dose 4 μM): 57.35% | invasion inhibition rate ([9]; dose 16 μM): 71.16% | invasion inhibition rate ([10]; dose 1 μM): 34.15% | invasion inhibition rate ([10]; dose 4 μM): 56.32% | invasion inhibition rate ([10]; dose 16 μM): 65.35% | invasion inhibition rate ([11]; dose 1 μM): 24.83% | invasion inhibition rate ([11]; dose 4 μM): 46.57% | invasion inhibition rate ([11]; dose 16 μM): 71.43% | invasion inhibition rate ([12]; dose 1 μM): 23.42% | invasion inhibition rate ([12]; dose 4 μM): 54.19% | invasion inhibition rate ([12]; dose 16 μM): 63.35% | invasion inhibition rate ([13]; dose 1 μM): 22.83% | invasion inhibition rate ([13]; dose 4 μM): 47.82% | invasion inhibition rate ([13]; dose 16 μM): 74.16% | invasion inhibition rate ([14]; dose 1 μM): 23.29% | invasion inhibition rate ([14]; dose 4 μM): 46.63% | invasion inhibition rate ([14]; dose 16 μM): 67.58% | invasion inhibition rate ([15]; dose 1 μM): 22.25% | invasion inhibition rate ([15]; dose 4 μM): 42.39% | invasion inhibition rate ([15]; dose 16 μM): 67.47% | invasion inhibition rate ([16]; dose 1 μM): 38.15% | invasion inhibition rate ([16]; dose 4 μM): 58.28% | invasion inhibition rate ([16]; dose 16 μM): 67.51%
